Values of other authors in patent US20080306035A1, “Methods and Compositions for Treating Female Infertility Using Clomiphene” (priority 2005, published 2008).
Where a name gives a salt, the structure may show the parent alone.

How the values were obtained:
[1] = in vivo

Compound	effect on uterine blood flow [1]	patients treated who achieve pregnancy (patients treated with clomiphene citrate, London et al. 1999)	ovulation, share of patients (up to 100 mg clomiphene citrate for 5 days per cycle)
trans-clomiphene	raise uterine blood flow		
cis-clomiphene	raise uterine blood flow		
CCN(CC)CCOc1ccc(C(=C(Cl)c2ccccc2)c2ccccc2)cc1 [clomiphene citrate]		25-40%	about 70%
